Where “and” joins values, the source holds several entries; their conditions need not be identical. Equal entries are not always repeated. Inconclusive results and toxic doses are left out. Peptide text beside a SMILES is read from it. * marks the point of attachment. Cbz = O=C(OCc1ccccc1)*

For the test, the system named is P388 leukemia ip, CD2F1 mice, survival T/C. In words: NCI In Vivo Anticancer Drug Screen. Data for tumor model P388 Leukemia (intraperitoneal) in CD2F1 (CDF1) mice. As to conditions: endpoint: median survival time, higher = longer survival. The essentials:
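Mice carrying the transplanted tumor received test compound or vehicle. Survival was recorded in each group, and the value is the treated-group measurement divided by that of the vehicle-treated control group.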

The mark [1] stands for this setting: dose: 50.0 mg/kg/injection, schedule: Q01DX005 (ip), vehicle: Klucel (hydroxypropylcellulose) (HPC).
Where [2] appears, read: dose: 100.0 mg/kg/injection, schedule: Q01DX005 (ip), vehicle: Klucel (hydroxypropylcellulose) (HPC).
The mark [3] stands for this setting: dose: 200.0 mg/kg/injection, schedule: Q01DX005 (ip), vehicle: Klucel (hydroxypropylcellulose) (HPC).
Where [4] appears, read: dose: 60.0 mg/kg/injection, schedule: Q01DX005 (ip), vehicle: saline with Tween-80.
Setting [5] is: dose: 120.0 mg/kg/injection, schedule: Q01DX005 (ip), vehicle: saline with Tween-80.
The mark [6] stands for this setting: dose: 240.0 mg/kg/injection, schedule: Q01DX005 (ip), vehicle: saline with Tween-80.
Setting [7] is: dose: 50.0 mg/kg/injection, schedule: Q01DX005 (ip), vehicle: saline with Tween-80.
The mark [8] stands for this setting: dose: 50.0 mg/kg/injection, schedule: Q01DX009 (ip), vehicle: saline with Tween-80.
Setting [9] is: dose: 50.0 mg/kg/injection, schedule: Q01DX009 (ip), vehicle: saline.
The mark [10] stands for this setting: dose: 100.0 mg/kg/injection, schedule: Q01DX005 (ip), vehicle: saline with Tween-80.
The mark [11] stands for this setting: dose: 100.0 mg/kg/injection, schedule: Q01DX009 (ip), vehicle: saline with Tween-80.
[12] abbreviates: dose: 100.0 mg/kg/injection, schedule: Q04DX003 (ip), vehicle: saline with Tween-80.
Setting [13] is: dose: 400.0 mg/kg/injection, schedule: Q04DX003 (ip), vehicle: saline with Tween-80.
Where [14] appears, read: dose: 200.0 mg/kg/injection, schedule: Q01DX005 (ip), vehicle: saline with Tween-80.
The mark [15] stands for this setting: dose: 100.0 mg/kg/injection, schedule: Q01DX009 (ip), vehicle: saline.
The mark [16] stands for this setting: dose: 200.0 mg/kg/injection, schedule: Q01DX009 (ip), vehicle: saline.

On to `Nc1nc(N)c(Cc2ccncc2)cc1Cc1ccncc1`, for which the T/C reads like this: under setting [1], 112 % of control; under setting [2], 101 % of control; under setting [3], 111 % of control.

Take `OC1OCC(COc2ccc(Cl)cc2)OC1O` (configuration not stated): the T/C is 108 % of control and 118 % of control under setting [4]; 111 % of control under setting [5]; 123 % of control under setting [6].

`CC(NC(=O)OCc1ccccc1)C(=O)NC(C(N)=O)C(C)C` (stereo not drawn) (Cbz-Ala-Val-NH2; configuration not given here): the T/C (dose: 12.5 mg/kg/injection, schedule: Q01DX005 (ip), vehicle: Klucel (hydroxypropylcellulose) (HPC)) is 89 % of control; the T/C (dose: 25.0 mg/kg/injection, schedule: Q01DX005 (ip), vehicle: Klucel (hydroxypropylcellulose) (HPC)) is 100 % of control; the T/C under setting [3] is 86 % of control.

As for `C[C@@H]1C[C@H](C)S(=O)[C@H](C)S1` (some centres not stated), the T/C runs as follows: (dose: 100.0 mg/kg/injection, schedule: Q04DX002 (ip), vehicle: saline) 101 % of control; (dose: 200.0 mg/kg/injection, schedule: Q04DX002 (ip), vehicle: saline) 102 % of control; (dose: 400.0 mg/kg/injection, schedule: Q04DX002 (ip), vehicle: saline) 100 % of control.

`O=C1CCC(c2nc3ccccc3[nH]2)N1Cc1csc(-c2ccccc2)n1` (configuration not stated): the T/C was 98 % of control under setting [4], 93 % of control under setting [5] and 88 % of control under setting [6].

With `CCOC(=O)C(CC(C(=O)O)c1ccccc1)c1ccccc1` (configuration not stated), the T/C runs as follows: under setting [1], 100 % of control; under setting [2], 96 % of control; under setting [3], 96 % of control.

As to `BrC[P+](CBr)(CBr)CBr`, the T/C was 151 % of control (dose: 12.5 mg/kg/injection, schedule: Q01DX009 (ip), vehicle: saline); 150 % of control (dose: 25.0 mg/kg/injection, schedule: Q01DX009 (ip), vehicle: saline); 114 % of control and 117 % of control under setting [7]; 151 % of control under setting [8]; 163 % of control under setting [9]; 123 % of control under setting [10]. Further, the T/C under setting [11] was 157 % of control.

With `CCC(c1ccccc1)(c1ccccc1)c1ccccc1`, the T/C by setting is: under setting [12], 98 % of control; (dose: 200.0 mg/kg/injection, schedule: Q04DX003 (ip), vehicle: saline with Tween-80) 100 % of control; under setting [13], 94 % of control.

`[N-]=[N+]=Nc1ccc(SN2C(=O)c3ccccc3C2=O)cc1`: the T/C runs as follows: under setting [4], 112 % of control; under setting [5], 113 % of control; under setting [6], 113 % of control.

Regarding `O=C1c2ccccc2C(=O)c2c1cn1c2Cc2ccccc2C1`, the T/C reads like this: (dose: 30.0 mg/kg/injection, schedule: Q01DX005 (ip), vehicle: Klucel (hydroxypropylcellulose) (HPC)) 103 % of control and 97 % of control; (dose: 60.0 mg/kg/injection, schedule: Q01DX005 (ip), vehicle: Klucel (hydroxypropylcellulose) (HPC)) 113 % of control and 94 % of control; (dose: 120.0 mg/kg/injection, schedule: Q01DX005 (ip), vehicle: Klucel (hydroxypropylcellulose) (HPC)) 103 % of control and 113 % of control and 96 % of control; (dose: 0.25 ml/mouse/injection, schedule: Q01DX005 (ip), vehicle: other) 107 % of control; (dose: 0.5 ml/mouse/injection, schedule: Q01DX005 (ip), vehicle: other) 106 % of control.

As for `COc1cc(/C=N/Nc2ccc([N+](=O)[O-])cc2)cc(OC)c1OC`, the T/C runs as follows: under setting [12], 95 % of control; under setting [13], 87 % of control.

In the case of `CC(C)=CCOc1cc(O)c(CC2=C(O)C(C)(C)C(=O)C(C(=O)C(C)C)=C2O)c(O)c1C(=O)c1ccccc1`, the T/C by setting is: (dose: 0.83 mg/kg/injection, schedule: Q01DX005 (ip), vehicle: DMSO) 110 % of control; (dose: 1.65 mg/kg/injection, schedule: Q01DX005 (ip), vehicle: DMSO) 103 % of control; (dose: 3.3 mg/kg/injection, schedule: Q01DX005 (ip), vehicle: DMSO) 103 % of control; (dose: 6.6 mg/kg/injection, schedule: Q01DX005 (ip), vehicle: DMSO) 88 % of control.

For `COc1ccc(-c2oc(=O)cc(-c3ccccc3)c2-c2ccccc2)cc1`, the T/C by setting is: under setting [7], 112 % of control; under setting [10], 93 % of control; under setting [14], 87 % of control.

With `O=C1c2ccccc2N(C(=O)CN2CCOCC2)CN1c1ccccc1`, the T/C under setting [9] was 98 % of control, the T/C under setting [15] was 100 % of control and the T/C under setting [16] was 98 % of control.

Regarding `CN1CCCC1c1ccc[n+](C)c1` (configuration not stated), the T/C is 110 % of control and 108 % of control under setting [9]; 110 % of control and 105 % of control under setting [15]; 115 % of control and 113 % of control under setting [16].

`NCC1OC(n2cnc3c(N)ncnc32)C(O)C1O` (configuration not stated): the T/C was 100 % of control (dose: 6.25 mg/kg/injection, schedule: Q01DX009 (ip), vehicle: water); 100 % of control (dose: 12.5 mg/kg/injection, schedule: Q01DX009 (ip), vehicle: water); 98 % of control (dose: 25.0 mg/kg/injection, schedule: Q01DX009 (ip), vehicle: water); 107 % of control (dose: 50.0 mg/kg/injection, schedule: Q01DX009 (ip), vehicle: water); 117 % of control (dose: 100.0 mg/kg/injection, schedule: Q01DX009 (ip), vehicle: water).

For the compound `CC1C2=C(CC(C)(C)CC2=O)OC2=C1C(=O)CC(C)(C)C2`, the T/C under setting [8] was 103 % of control; the T/C under setting [11] is 104 % of control; the T/C (dose: 200.0 mg/kg/injection, schedule: Q01DX009 (ip), vehicle: saline with Tween-80) is 99 % of control.

For the compound `Cc1cccc(C(=O)C(CN(C)C)CN(C)C)c1`, the T/C (dose: 12.5 mg/kg/injection, schedule: Q01DX005 (ip), vehicle: saline) was 112 % of control and the T/C (dose: 25.0 mg/kg/injection, schedule: Q01DX005 (ip), vehicle: saline) is 114 % of control.

Turning to `O=P(c1ccccc1)(c1ccccc1)c1ccccc1.O=P(c1ccccc1)(c1ccccc1)c1ccccc1.S=C=[N][Sn]([N]=C=S)([N]=C=S)[c]1ccccc1`, the T/C is 105 % of control (dose: 100.0 mg/kg/injection, schedule: Q04DX003 (ip), vehicle: saline); 108 % of control (dose: 200.0 mg/kg/injection, schedule: Q04DX003 (ip), vehicle: saline); 100 % of control (dose: 400.0 mg/kg/injection, schedule: Q04DX003 (ip), vehicle: saline).

With `COc1ccc(CCN2C(=O)C(=O)N(c3cccc(Cl)c3)C2=O)cc1OC`, the T/C reads like this: (dose: 100.0 mg/kg/injection, schedule: Q01DX009 (ip), vehicle: Klucel (hydroxypropylcellulose) (HPC)) 86 % of control; (dose: 200.0 mg/kg/injection, schedule: Q01DX009 (ip), vehicle: Klucel (hydroxypropylcellulose) (HPC)) 92 % of control.

As to `COc1ccc(C2CCC[C@H](CCc3ccc(O)cc3)O2)cc1` (some centres not stated), the T/C by setting is: under setting [7], 97 % of control; under setting [10], 114 % of control; under setting [14], 109 % of control.

With `O=c1c[n+](-c2ccccc2)[nH]o1`, the T/C (dose: 100.0 mg/kg/injection, schedule: Q04DX003 (ip), vehicle: Klucel (hydroxypropylcellulose) (HPC)) was 109 % of control; the T/C (dose: 200.0 mg/kg/injection, schedule: Q04DX003 (ip), vehicle: Klucel (hydroxypropylcellulose) (HPC)) was 100 % of control; the T/C (dose: 400.0 mg/kg/injection, schedule: Q04DX003 (ip), vehicle: Klucel (hydroxypropylcellulose) (HPC)) was 104 % of control.

These data come from PubChem BioAssay AID330 (DTP/NCI, 2004).
